Assay results reported in publication PMC8111499, “GW117: A novel serotonin (5‐HT2C) receptor antagonist and melatonin (MT1/MT2) receptor agonist with potential antidepressant‐like activity in rodents” (CNS Neuroscience & Therapeutics, 2021).

What was measured:
CUS rats = test: Novelty‐suppressed feeding test in the CUS model; assay type: in vivo; details: chronic, 5, 10, 20 and 40 mg/kg, vs. vehicle‐stressed rats
Method: In order to further examine the antidepressant effects of GW117, chronic unpredictable stress (CUS) model was utilized; the methods were as described before. ^29 , ^31 After 1 week of training, rats underwent sucrose training of 48 h. After training, a sucrose baseline test was performed. […] Gastric gavage was given 1 h before the stress (08:00–09:00). Except for the non‐stressed group, all rats were stimulated by a series of stressors. stress methods included the following: fast on food and water (24 h), moisture cage (150 g sawdust bedding in 200 ml water), overnight illumination, low‐intensity strobe illumination (100 flashes/min), forced swimming (5 min at 10℃), white noise (110 dB), tail pinch (1 cm from tail root, 6 min), 45℃ cage tilt, and restraint (1–2 h). Stressors need to be used continuously and randomly. Non‐stressed rats received free food and water, but were required to fast for 14 h before sucrose preference test. After 4 weeks of stress, the sucrose preference test (SPT) (on day 25), open field test (OFT) (on day 28), and novelty‐suppressed feeding (NSF) test (on day 29) were carried out. […]

5‐HT2C receptor = molecular target: T1, 5‐HT2C receptor (Rattus norvegicus, UniProt P08909); test: 5‐HT2C receptor binding assay ([3H]‐LSD competition); details: mean ± SEM, three independent experiments
T1 construct: 5‐HT2C receptor membrane protein was extracted from rat hippocampus and a stably transfected HEK293 cell line; from tissue; host or cells: rat hippocampus
T1 sequence (P08909 33-460): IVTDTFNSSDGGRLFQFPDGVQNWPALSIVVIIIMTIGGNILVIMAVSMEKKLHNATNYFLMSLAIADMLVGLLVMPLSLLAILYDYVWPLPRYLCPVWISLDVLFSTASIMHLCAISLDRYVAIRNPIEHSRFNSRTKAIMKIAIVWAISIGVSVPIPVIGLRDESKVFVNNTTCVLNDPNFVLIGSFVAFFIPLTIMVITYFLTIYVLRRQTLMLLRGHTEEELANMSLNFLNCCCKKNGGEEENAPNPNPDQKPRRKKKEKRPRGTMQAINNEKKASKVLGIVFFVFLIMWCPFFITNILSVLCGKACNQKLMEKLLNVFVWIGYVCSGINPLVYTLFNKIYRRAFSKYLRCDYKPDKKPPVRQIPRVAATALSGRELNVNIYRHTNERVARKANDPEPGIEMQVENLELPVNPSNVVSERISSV
Method: Hippocampal membrane preparations were obtained using previously described methods. ^24 , ^25 , ^26 Briefly, rats were decapitated and their brains were rapidly removed. Next, the hippocampus was dissected and subsequently homogenized in 40 volumes of ice‐cold buffer (50 mM Tris‐HCl Buffer, pH 7.4) and then centrifuged at 40,000 × g at 4°C for 10 min. The particles were re‐suspended and centrifuged again. In order to remove endogenous monoamines, the final suspension was incubated at 37°C for 20 min and then centrifuged as usual. The final pellets were frozen at −80°C at once for up to 1 week.
Human MT1/MT2 receptor membrane proteins were obtained from Perkin‐Elmer (ES‐620 [MT1] and ES‐621 [MT2]). The stably transfected 5‐HT2C receptor HEK293 cell line was prepared using a nucleus‐cytoplasm‐membrane preparation kit (Applagin Technologies Inc.). Briefly, cells were harvested at 4°C, 110 00 × g and centrifugation for 5 min. Homogenize pellets in the assay buffer (50 mM Tris‐HCl buffer containing 120 mM NaCl and 5 mM KCl, pH 7.4) and then centrifuged twice at 4°C, 36,000 × g for 15 min. […]
Receptor membrane protein, 5‐HT2C (50 μl), was added to all the tubes. Non‐specific binding was determined by the presence of unlabeled 10 μM 5‐HT and pre‐reacted for 30 min. […] Finally, 1 ml of scintillation fluid was added and the radioactive intensity measured by liquid scintillation counting.

mice = test: Learned helplessness paradigm in mice; assay type: in vivo, ICR mice; details: sub‐chronic, fourth day after inescapable shock training, vs stress
Method: For 4 consecutive days, mice were putted into the shuttle box device (40 × 10 × 13 cm), the device was splited into two compartments, and mice could free access. In the IS group, each mouse received 360 inescapable shocks (current intensity 0.30 mA, duration 2 s, 3‐13 s variable interval, about 1 h) over four consecutive training days. Animals in the NIS group underwent the same handling without receiving the foot shocks. 10 trials were conducted on mice to screen helpless, each of which includes conditioned stimulation period (3‐s lamp on), non‐conditioned stimulation period (3‐s lamp +shock), and interval period (without any stimulus, 25 s). […] The EF values were balanced for each group in the experiment. Using Graphic State software (Coulbourn Instruments Inc.,) recorded the number of escape failures and the latency to escape.

[1] = molecular target: T2, 5‐HT2C receptor from rat hippocampal membranes (Rattus norvegicus, UniProt P08909); test: [35S]‐GTPγS and [3H]PIP assays, blockade of 5‐HT activation; assay type: biochemical; details: 10 nM 5‐HT
T2 construct: 5‐HT2C receptor from rat hippocampal membranes (C‐D); from tissue; host or cells: rat hippocampus
T2 sequence (P08909 33-460): T1 sequence (P08909 33-460)
Method: This experiment was mentioned earlier. ^27 In short, HEK293 cell membrane stably expressing human 5‐HT2C receptors or rat hippocampal tissue membrane or MT1/MT2 receptors was re‐suspended in buffer (50 mmol/L Tris, 100 mmol/L NaCl, 5 mmol/L MgCl2·6H2O, 0.1 mmol/L EDTA‐Na2·6H2O, 0.2 mmol/L EGTA, pH 7.4) and incubated with the test compound (100 μM GDP, 0.2 nM [^35S]‐GTP, or [^3H]PIP) for 60 min at 28℃. At the end of the experiment, Whatman GF/C filters pre‐soaked with distilled water were used for rapid filtration followed by washing with 5 ml of ice‐cold Tris buffer. Determination of non‐specific binding in the presence of GTPγS and radioactivity was measured by liquid scintillation counting. Calculation of the concentration produces a half‐maximal effect (EC50) and the maximal increase above the baseline value.

[2H]C([2H])([2H])Oc1cc2c(CCNC(C)=O)cccc2cc1Cl [GW117]
latency to begin eating (CUS rats): significantly reduced the latency to begin eating
Ki (5‐HT2C receptor): 0.32 ± 0.08 nM
number of failures to escape (mice; 40 mg/kg): significantly decreased the number of failures to escape
escape latency (mice; 20 and 40 mg/kg): decreased the escape latency
blockade of activation of [35S]‐GTPγS binding and [3H]PIP released by 5‐HT [1]: dose‐dependently blocked
